Experimental data reported in patent US11014920B2, “Factor XIIa inhibitors” (Merck Sharp & Dohme Corp., priority 2016, dated 2021).

Target: purified human Factor XIIa (Homo sapiens (Human), UniProt P00748)
Assay: Factor XIIa assay
Format: biochemical
Settings: substrate n-Acetyl-Lys-Pro-Arg-AFC 100 μM, pH 7.4, read-out: FXIIa IC50
Method: “FXIIa IC50(nm)” is Human Factor XIIa IC50 (nm).
The effectiveness of a compound of the present invention as an inhibitor of Coagulation Factor XIIa can be determined using a relevant purified serine protease, and an appropriate synthetic substrate. The rate of hydrolysis of the chromogenic or fluorogenic substrate by the relevant serine protease was measured both in the absence and presence of compounds of the present invention. Assays were conducted at room temperature or at 37° C. […] A decrease in the rate of fluorescence change in the presence of inhibitor is indicative of enzyme inhibition. Such methods are known to one skilled in the art. The results of this assay are expressed as the IC50, the inhibitor concentration causing a 50% decrease in Factor XIIa protease activity.
Factor XIIa activity determinations were made in 50 mM HEPES buffer containing 150 mM NaCl, 5 mM CaCl2, and 0.1% PEG 8000 (polyethylene glycol; JT Baker or Fisher Scientific) at pH 7.4. Determinations were made using purified human Factor XIIa at a final concentration of […] (Sekisui Diagnostics) and the synthetic substrate, n-Acetyl-Lys-Pro-Arg-AFC, TFA salt (Sigma # C6608) at a concentration of 100 μM.
Times required to achieve equilibration between enzyme and inhibitor were determined in control experiments. Initial velocities of product formation in the absence (Vo) or presence of inhibitor (Vi) were measured.

Sequence of purified human Factor XIIa (P00748 373-615): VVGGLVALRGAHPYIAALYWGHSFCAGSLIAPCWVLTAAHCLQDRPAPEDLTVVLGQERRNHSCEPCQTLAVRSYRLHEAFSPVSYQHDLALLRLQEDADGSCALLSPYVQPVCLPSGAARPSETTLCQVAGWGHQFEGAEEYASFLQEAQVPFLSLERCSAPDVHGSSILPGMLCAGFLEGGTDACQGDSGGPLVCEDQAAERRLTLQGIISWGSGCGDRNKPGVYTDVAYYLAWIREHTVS
Sequence of purified human Factor XIIa (P00748 20-372 partner): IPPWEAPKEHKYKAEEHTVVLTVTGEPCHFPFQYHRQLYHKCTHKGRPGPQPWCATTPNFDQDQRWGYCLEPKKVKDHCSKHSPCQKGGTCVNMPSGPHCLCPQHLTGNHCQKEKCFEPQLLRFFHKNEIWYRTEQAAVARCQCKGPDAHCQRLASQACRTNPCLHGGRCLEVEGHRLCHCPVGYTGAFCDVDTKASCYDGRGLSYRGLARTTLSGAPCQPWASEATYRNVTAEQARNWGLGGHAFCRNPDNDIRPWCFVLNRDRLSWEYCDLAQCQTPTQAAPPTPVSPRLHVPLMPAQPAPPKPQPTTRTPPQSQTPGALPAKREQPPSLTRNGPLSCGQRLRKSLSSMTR

IC50	Structure (SMILES)
65.9 nM	CC(=O)OCCCC[C@@H](NC1CCCCC1)C(=O)N1CC[C@@H](NC(=O)N2CCC3(CC2)CC3)[C@@H](C(=O)NCc2cccs2)C1 [Compound 26, (5R)-6-{(3S,4R)-4-[(6-azaspiro[2.5]oct-6-ylcarbonyl)amino]-3-[(thiophen-2-ylmethy)carbamoyl]pi-peridin-1-yl}-5-(cyclohexylamino)-6-oxohexyl acetate]
110 nM	CN(C)CCCC[C@H](C(=O)N1CC[C@@H](NC(=O)N2CCCc3ccccc32)[C@@H](C(=O)NCc2cccs2)C1)N(C)C1CCCCC1 [Compound 27, N-{(3S,4R)-1-(N~2~- cyclohexyl-N~2~,N~6~,N~6~- trimethyl-D-lysyl)-3-[(thiophen-2-ylmethyl)carbamoyl]pi-peridin-4-yl}-3,4-dihydroquinoline-1(2H)-carboxamide]
102 nM	CN(C)CCCC[C@@H](NC1CCCCC1)C(=O)N1CC[C@@H](NC(=O)N2CCCc3ccccc32)[C@@H](C(=O)NCc2cccs2)C1 [Compound 28, N-{(3S,4R)-1-(N~2~- cyclohexyl-N~6~,N~6~-dimethyl-D-lysyl)-3-[(thiophen-2-ylmethyl)carbamoyl]pi-peridin-4-yl}-3,4-dihydroquinoline-1(2H)-carboxamide]
37.6 nM	Cc1ccc(C(=O)N[C@@H]2CCN(C(=O)[C@@H](CCCCN(C)C)N(C)C3CCCCC3)C[C@@H]2C(=O)NCc2cccs2)c(F)c1 [Compound 29, (3S,4R)-1-(N~2~- cyclohexyl-N~2~,N~6~,N~6~- trimethyl-D-lysyl)-4-{[(2-fluoro-4-methyl-phenyl)carbonyl]amino}-N-(thiophen-2-ylmethyl)piperidine-3-carboxamide]
50.1 nM	CN(C1CCCCC1)[C@H](CCCCNS(C)(=O)=O)C(=O)N1CC[C@@H](NC(=O)N2CCC3(CC2)CC3)[C@@H](C(=O)NCc2cccs2)C1 [Compound 30, N-{(3S,4R)-1-[N~2~- cyclohexyl-N~2~- methyl-N~6~- (methylsulfonyl)-D-lysyl]-3-[(thiophen-2-ylmethyl)carbamoyl]pi-peridin-4-yl}-6-azaspiro[2.5]octane-6-carboxamide]
1.5 nM	CN(C)CCCC[C@@H](NC1CCC2(CC1)CCN(Cc1ccccc1)C2)C(=O)N1CC[C@@H](NC(=O)N2CCC3(CC2)CC3)[C@@H](C(=O)NCc2cccs2)C1 (stereo partly drawn) [Compound 31, N-{(3S,4R)-1-[N~2~- (2-benzyl-2-azaspiro[4.5]dec-8-yl)-N~6~,N~6~-dimethyl-D-lysyl]-3-[(thiophen-2-ylmethyl)carbamoyl]pi-peridin-4-yl}-6-azaspiro[2.5]octane-6-carboxamide]
22.5 nM	CN(CCCC[C@@H](NC1CCCCC1)C(=O)N1CC[C@@H](NC(=O)N2CCC3(CC2)CC3)[C@@H](C(=O)NCc2cccs2)C1)S(C)(=O)=O [Compound 32, N-{(3S,4R)-1-[N~2~- cyclohexyl-N~6~- methyl-N~6~- (methylsulfonyl)-D-lysyl]-3-[(thiophen-2-ylmethyl)carbamoyl]pi-peridin-4-yl}-6-azaspiro[2.5]octane-6-carboxamide]
15.1 nM	CN(C)CCCC[C@H](C(=O)N1CC[C@@H](NC(=O)N2CCC3(CC2)CC3)[C@@H](C(=O)NCc2cccs2)C1)N(C)C1CCCCC1 [Compound 33, N-{(3S,4R)-1-(N~2~- cyclohexyl-N~2~,N~6~,N~6~- trimethyl-D-lysyl)-3-[(thiophen-2-ylmethyl)carbamoyl]pi-peridin-4-yl}-6-azaspiro[2.5]octane-6-carboxamide]
5.7 nM	CN(C)CCCC[C@@H](NC1CCCCC1)C(=O)N1CC[C@@H](NC(=O)N2CCC3(CC2)CC3)[C@@H](C(=O)NCc2cccs2)C1 [Compound 34, N-{(3S,4R)-1-(N~2~- cyclohexyl-N~6~,N~6~-dimethyl-D-lysyl)-3-[(thiophen-2-ylmethyl)carbamoyl]pi-peridin-4-yl}-6-azaspiro[2.5]octane-6-carboxamide]
19.5 nM	CS(=O)(=O)N(CCCC[C@@H](NC1CCCCC1)C(=O)N1CC[C@@H](NC(=O)N2CCC3(CC2)CC3)[C@@H](C(=O)NCc2cccs2)C1)CC(F)(F)F [Compound 35, N-{(3S,4R)-1-[N~2~- cyclohexyl-N~6~- (methylsulfonyl)-N~6~- (2,2,2-trifluoroethyl)-D-lysyl]-3-[(thiophen-2-ylmethyl)carbamoyl]pi-peridin-4-yl}-6-azaspiro[2.5]octane-6-carboxamide]
428 nM	O=C(NCc1cccs1)[C@H]1CN(C(=O)[C@@H](CC2CCCCC2)NC2CCCCC2)CC[C@H]1NC(=O)N1CCCC2(CCNC2=O)C1 (stereo partly drawn) [Compound 36, N-((3S,4R)-1-((R)-3-cyclohexyl-2-(cyclohexylamino)pro-panoyl)-3-((thiophen-2-ylmethyl)carbamoyl)pi-peridin-4-yl)-1-oxo-2,7-diazaspiro[4.5]decane-7-carboxamide]
